Measurements reported in article PMC8668026 (ACS infectious diseases, 2021).
≈ marks a conversion by molar mass, not a printed value. Square brackets hold non-standard residues; d marks the D form. Peptide text beside a SMILES is read from it. * marks the point of attachment. ξ: configuration not given here. ξR = N=C(N)NCCCC(N)C(=O)O; βNA = c1ccc2cc(N*)ccc2c1

How the values were obtained:
E. coli BW25113 (WT) = experiment: MIC, 2-fold broth dilution, E. coli WT; type: cell-based, Escherichia coli; details: for MIC: Escherichia coli, BW25113, read-out: MIC WT
E. coli WT-pore = experiment: MIC, 2-fold broth dilution, hyperporinated WT-pore; type: cell-based, Escherichia coli; details: for MIC: Escherichia coli, read-out: MIC WT-pore
E. coli ΔtolC = experiment: MIC, 2-fold broth dilution, efflux-deficient ΔtolC; type: cell-based, Escherichia coli; details: average of two replicates
E. coli ΔtolC-pore = experiment: MIC, 2-fold broth dilution, ΔtolC-pore; type: cell-based, Escherichia coli; details: average of two replicates
E. coli WT-pore cells = experiment: Checkerboard potentiation of novobiocin/erythromycin; type: cell-based, Escherichia coli
A549 cells = experiment: MTS cytotoxicity assay; type: cell-based, human; details: average of two replicates
E. cloacae ATCC13047 [1] = experiment: MIC in E. cloacae; type: cell-based, Enterobacter cloacae
E. cloacae ATCC13047 [2] = experiment: Potentiation of NOV, ERY, CIP in E. cloacae; type: cell-based, Enterobacter cloacae
K. pneumoniae ATCC13883 [3] = experiment: MIC in K. pneumoniae; type: cell-based, Klebsiella pneumoniae
K. pneumoniae ATCC13883 [4] = experiment: Potentiation of NOV, ERY, CIP in K. pneumoniae; type: cell-based, Klebsiella pneumoniae
AcrAB−TolC = AcrAB−TolC (Escherichia coli, UniProt P0AE06+P31224); details: steady-state Nile Red accumulation in WT-pore cells with 32 μM vs 0 μM compound
AcrA [5] = molecular target: T1, AcrA (Escherichia coli, UniProt P0AE06); details: periplasm of WT-pore cells; trypsin; accumulation of K46-K346 fragment
AcrB = AcrB (Escherichia coli, UniProt P31224); details: read-out: KD AcrB; SPR; ref [38] and [47]; cited from earlier work
AcrA [6] = molecular target: T1, AcrA; details: read-out: KD AcrA; SPR; ref [38] and [47]; cited from earlier work
[7] = Enterobacter cloacae, ATCC13047
[8] = Klebsiella pneumoniae, ATCC13883

T1 sequence (P0AE06 25-397): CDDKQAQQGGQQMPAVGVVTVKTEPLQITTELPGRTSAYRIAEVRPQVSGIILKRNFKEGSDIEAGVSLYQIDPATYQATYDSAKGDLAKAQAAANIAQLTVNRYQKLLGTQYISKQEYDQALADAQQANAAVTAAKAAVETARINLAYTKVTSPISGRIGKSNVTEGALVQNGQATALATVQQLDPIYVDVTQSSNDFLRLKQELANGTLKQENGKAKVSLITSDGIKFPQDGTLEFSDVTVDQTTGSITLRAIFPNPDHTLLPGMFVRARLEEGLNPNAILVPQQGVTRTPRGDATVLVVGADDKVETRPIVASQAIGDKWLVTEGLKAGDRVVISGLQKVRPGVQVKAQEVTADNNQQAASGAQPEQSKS
Sequence of AcrAB−TolC (P31224 whole entry, the tested form may be a part): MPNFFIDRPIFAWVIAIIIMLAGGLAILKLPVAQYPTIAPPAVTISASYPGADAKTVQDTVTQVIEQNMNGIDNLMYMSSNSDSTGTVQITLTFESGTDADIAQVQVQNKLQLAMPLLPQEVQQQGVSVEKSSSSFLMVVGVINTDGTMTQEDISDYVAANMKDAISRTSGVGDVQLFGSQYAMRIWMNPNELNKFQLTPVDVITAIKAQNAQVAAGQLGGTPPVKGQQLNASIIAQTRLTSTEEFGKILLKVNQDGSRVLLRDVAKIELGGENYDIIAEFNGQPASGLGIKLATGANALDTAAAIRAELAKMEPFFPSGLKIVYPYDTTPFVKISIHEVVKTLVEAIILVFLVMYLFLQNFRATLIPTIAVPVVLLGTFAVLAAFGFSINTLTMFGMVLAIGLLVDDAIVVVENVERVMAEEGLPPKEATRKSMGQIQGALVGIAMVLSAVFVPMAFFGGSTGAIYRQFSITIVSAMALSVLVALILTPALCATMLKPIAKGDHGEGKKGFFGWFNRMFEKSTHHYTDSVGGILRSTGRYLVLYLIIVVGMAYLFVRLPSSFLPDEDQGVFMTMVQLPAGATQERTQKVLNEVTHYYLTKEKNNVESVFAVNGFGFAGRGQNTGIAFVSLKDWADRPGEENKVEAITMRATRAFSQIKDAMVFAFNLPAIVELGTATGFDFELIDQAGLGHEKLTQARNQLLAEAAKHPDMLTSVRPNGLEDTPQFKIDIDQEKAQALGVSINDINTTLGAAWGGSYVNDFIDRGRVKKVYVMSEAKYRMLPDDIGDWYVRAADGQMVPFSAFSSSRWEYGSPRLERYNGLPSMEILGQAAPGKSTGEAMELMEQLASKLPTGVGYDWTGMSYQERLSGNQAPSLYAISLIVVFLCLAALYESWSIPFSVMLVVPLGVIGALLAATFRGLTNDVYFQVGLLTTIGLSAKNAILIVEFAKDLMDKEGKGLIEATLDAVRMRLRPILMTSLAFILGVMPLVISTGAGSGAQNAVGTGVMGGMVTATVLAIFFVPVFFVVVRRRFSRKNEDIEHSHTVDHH
Sequence of AcrAB−TolC (P0AE06 25-397): as the sequence (P0AE06 25-397) above
Sequence of AcrAB−TolC (P02930 23-493, further chain): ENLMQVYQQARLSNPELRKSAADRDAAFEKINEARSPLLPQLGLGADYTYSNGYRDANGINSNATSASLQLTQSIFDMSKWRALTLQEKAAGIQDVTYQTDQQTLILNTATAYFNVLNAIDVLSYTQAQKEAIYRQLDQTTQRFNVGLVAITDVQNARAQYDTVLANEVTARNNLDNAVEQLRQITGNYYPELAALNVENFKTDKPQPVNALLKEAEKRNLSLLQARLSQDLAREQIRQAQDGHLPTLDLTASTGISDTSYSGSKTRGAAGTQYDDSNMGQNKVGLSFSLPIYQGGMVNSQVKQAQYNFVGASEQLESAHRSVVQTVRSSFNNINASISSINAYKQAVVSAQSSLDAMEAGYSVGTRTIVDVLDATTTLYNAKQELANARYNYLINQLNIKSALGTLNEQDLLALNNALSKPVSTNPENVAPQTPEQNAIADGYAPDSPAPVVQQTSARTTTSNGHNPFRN
Sequence of AcrB (P31224 whole entry): as the sequence (P31224 whole entry, the tested form may be a part) above

Cc1cc(N)c2cc(NC(=O)/C=C/c3ccccc3Cl)ccc2n1 [Compound 2]
MIC WT (E. coli BW25113 (WT); E. coli WT, average of two replicates): 200 µM (≈ 67.6 µg/mL) | MIC WT-pore (E. coli WT-pore; E. coli hyperporinated WT-pore, average of two replicates): 100 µM (≈ 33.8 µg/mL) | MIC ΔtolC (E. coli ΔtolC): 12.5 µM (≈ 4.22 µg/mL) | MIC ΔtolC-pore (E. coli ΔtolC-pore): 12.5 µM (≈ 4.22 µg/mL) | potentiation MPC4 (ERY) (E. coli WT-pore cells; minimum concentration reducing MIC of erythromycin 4-fold): 3.1 µM | potentiation MPC4 (NOV) (E. coli WT-pore cells; minimum concentration reducing MIC of novobiocin 4-fold): 1.56 µM | CC50 (A549 cells): 10 µM | MIC (E. cloacae ATCC13047 [1]; E. cloacae ATCC13047, test compounds, average of two replicates): >100 µM | fold MIC (CIP) (E. cloacae ATCC13047 [2]): 1 | fold MIC (ERY) (E. cloacae ATCC13047 [2]): 8 | fold MIC (NOV) (E. cloacae ATCC13047 [2]): 64 | MIC (K. pneumoniae ATCC13883 [3]; K. pneumoniae ATCC13883, test compounds, average of two replicates): >100 µM | fold MIC (NOV) (K. pneumoniae ATCC13883 [4]): 64 | efflux inhibition, SS ratio 32 μM/0 μM (AcrAB−TolC): 6.5 | effect on proteolytic profile of AcrA (AcrA [5]): did not affect the proteolytic profiles of AcrA

CC[C@H]1OC(=O)[C@H](C)[C@@H](O[C@H]2C[C@@](C)(OC)[C@@H](O)[C@H](C)O2)[C@H](C)[C@@H](O[C@@H]2O[C@H](C)C[C@H](N(C)C)[C@H]2O)[C@](C)(O)C[C@@H](C)C(=O)[C@H](C)[C@@H](O)[C@]1(C)O [ERY, erythromycin]
MIC (E. coli BW25113 (WT)): 64 µM (≈ 47 µg/mL) | MIC (E. coli WT-pore): 4 to 8 µM (≈ 2.94 to 5.87 µg/mL) | MIC ΔtolC (E. coli ΔtolC): 2 µM (≈ 1.47 µg/mL) | MIC (E. cloacae ATCC13047 [1]; [7]): 400 µg/mL | MIC (K. pneumoniae ATCC13883 [3]; [8]): 400 µg/mL

NC(N)=NCCCC(NC(=O)[C@@H](N)Cc1ccccc1)C(=O)Nc1ccc2ccccc2c1 (stereo partly shown) [MC] (H-Phe-[ξR]-βNA)
Kd (AcrB): 110 µM

CO[C@@H]1[C@@H](OC(N)=O)[C@@H](O)[C@H](Oc2ccc3c(O)c(NC(=O)c4ccc(O)c(CC=C(C)C)c4)c(=O)oc3c2C)OC1(C)C [NOV, novobiocin]
MIC (E. coli BW25113 (WT)): 128 µM (≈ 78.4 µg/mL) | MIC (E. coli WT-pore): 32 to 64 µM (≈ 19.6 to 39.2 µg/mL) | MIC ΔtolC (E. coli ΔtolC): 0.5 µM (≈ 0.306 µg/mL) | MIC ΔtolC-pore (E. coli ΔtolC-pore): 0.125 µM (≈ 0.0766 µg/mL) | MIC (E. cloacae ATCC13047 [1]; [7]): 400 µg/mL | MIC (K. pneumoniae ATCC13883 [3]; [8]): 50 µg/mL | Kd (AcrA [6]): 40 µM
